Measurements reported in patent US11117900B2 (Vertex Pharmaceuticals Incorporated, priority 2012, dated 2021).

System: HCT116 colorectal cancer cells
Assay: Cisplatin sensitization assay (96 h MTS cell viability);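 further: compound concentration needed to lower the IC50 of Cisplatin alone by a set fold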
Type: cell-based
Settings: Cisplatin sensitization value
Outline: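 HCT116 cells were dosed simultaneously with compound and cisplatin as a full matrix of 2-fold serial dilutions from 10 μM top final concentration. Incubation was 96 h at 37° C., 5% CO2, followed by 1 h with MTS reagent for the viability read-out. Sensitization values were binned into +++, ++ and + categories.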

Row | SMILES | Cisplatin Sensitization Assay
1 | Nc1nn2cc(F)cnc2c1C(=O)Nc1cnccc1-c1ccc(C(=O)N2CCN3CCC2CC3)cc1F [I-C-50, N-(4-(4-(1,4-diazabicyclo[3.2.2]nonane-4-carbonyl)-2-fluorophenyl)pyridin-3-yl)-2-amino-6-fluoropyrazolo[1,5-a]pyrimidine-3-carboxamide] | +++ (Compounds with a Cisplatin sensitization value of <0.02 μM are marked with “+++.”)
2 | Nc1nn2cc(F)cnc2c1C(=O)Nc1cncc(F)c1N1CCC(C(=O)N2CC[C@H](N3CCCC3)C2)CC1 [I-G-58, (S)—N-(4-(4-([1,3′-bipyrrolidine]-1′-carbonyl)piperidin-1-yl)-5-fluoropyridin-3-yl)-2-amino-6-fluoropyrazolo[1,5-a]pyrimidine-3-carboxamide] | +++ (Compounds with a Cisplatin sensitization value of <0.02 μM are marked with “+++.”)
3 | Nc1nn2cc(Cl)cnc2c1C(=O)Nc1cnccc1O[C@H]1CCNC1 [I-O-76, (S)-2-amino-6-chloro-N-(4-(pyrrolidin-3-yloxy)pyridin-3-yl)pyrazolo[1,5-a]pyrimidine-3-carboxamide] | ++ (Compounds with a Cisplatin sensitization value >0.02 μM but <0.2 μM are marked with “++.”)
4 | Nc1nn2cc(F)cnc2c1C(=O)Nc1cncc(F)c1N1CCN2C(=O)CC[C@@H]2C1 [I-N-182, (R)-2-amino-6-fluoro-N-(5-fluoro-4-(6-oxohexahydropyrrolo[1,2-a]pyrazin-2(1H)-yl)pyridin-3-yl)pyrazolo[1,5-a]pyrimidine-3-carboxamide] | ++ (Compounds with a Cisplatin sensitization value >0.02 μM but <0.2 μM are marked with “++.”)
5 | CN1CCc2c(cncc2NC(=O)c2c(N)nn3cc(F)cnc23)C1 [I-C-8, 2-amino-6-fluoro-N-(7-methyl-5,6,7,8-tetrahydro-2,7-naphthyridin-4-yl)pyrazolo[1,5-a]pyrimidine-3-carboxamide] | + (Compounds with a Cisplatin sensitization value >0.2 μM but <5 μM are marked with “+.”)
6 | Cc1ncnn1-c1ccncc1NC(=O)c1c(N)nn2cc(F)cnc12 [I-N-162, 2-amino-6-fluoro-N-(4-(5-methyl-1H-1,2,4-triazol-1-yl)pyridin-3-yl)pyrazolo[1,5-a]pyrimidine-3-carboxamide] | ++ (Compounds with a Cisplatin sensitization value >0.02 μM but <0.2 μM are marked with “++.”)
7 | CN1CCN2CCN(c3c(F)cncc3NC(=O)c3c(N)nn4cc(F)cnc34)CC2C1=O (stereo not shown) [I-N-240, 2-amino-6-fluoro-N-(5-fluoro-4-(8-methyl-9-oxohexahydro-1H-pyrazino[1,2-a]pyrazin-2(6H)-yl)pyridin-3-yl)pyrazolo[1,5-a]pyrimidine-3-carboxamide] | ++ (Compounds with a Cisplatin sensitization value >0.02 μM but <0.2 μM are marked with “++.”)
8 | Cc1ccnnc1-c1ccncc1NC(=O)c1c(N)nn2cc(F)cnc12 [I-C-33, 2-amino-6-fluoro-N-(4-(4-methylpyridazin-3-yl)pyridin-3-yl)pyrazolo[1,5-a]pyrimidine-3-carboxamide] | + (Compounds with a Cisplatin sensitization value >0.2 μM but <5 μM are marked with “+.”)
9 | Nc1nn2cc(F)cnc2c1C(=O)Nc1cncc(F)c1N1CCC(C(=O)N2CCOCC2)CC1 [I-G-36, 2-amino-6-fluoro-N-(5-fluoro-4-(4-(morpholine-4-carbonyl)piperidin-1-yl)pyridin-3-yl)pyrazolo[1,5-a]pyrimidine-3-carboxamide] | +++ (Compounds with a Cisplatin sensitization value of <0.02 μM are marked with “+++.”)
10 | Nc1nn2cc(F)cnc2c1C(=O)Nc1cnccc1CN1CCCC1=O [I-C-76, 2-amino-6-fluoro-N-(4-((2-oxopyrrolidin-1-yl)methyl)pyridin-3-yl)pyrazolo[1,5-a]pyrimidine-3-carboxamide] | + (Compounds with a Cisplatin sensitization value >0.2 μM but <5 μM are marked with “+.”)
11 | Nc1nn2cc(F)cnc2c1C(=O)Nc1cnccc1-c1ccccc1 [I-C-5, 2-amino-6-fluoro-N-(4-phenylpyridin-3-yl)pyrazolo[1,5-a]pyrimidine-3-carboxamide] | +++ (Compounds with a Cisplatin sensitization value of <0.02 μM are marked with “+++.”)
12 | Cc1ncn(C)c1-c1ccncc1NC(=O)c1c(N)nn2cc(F)cnc12 [I-C-78, 2-amino-N-(4-(1,4-dimethyl-1H-imidazol-5-yl)pyridin-3-yl)-6-fluoropyrazolo[1,5-a]pyrimidine-3-carboxamide] | ++ (Compounds with a Cisplatin sensitization value >0.02 μM but <0.2 μM are marked with “++.”)
13 | CN1CCN(c2c(F)cncc2NC(=O)c2c(N)nn3cc(F)cnc23)CC1 [I-N-15, 2-amino-6-fluoro-N-(5-fluoro-4-(4-methylpiperazin-1-yl)pyridin-3-yl)pyrazolo[1,5-a]pyrimidine-3-carboxamide] | +++ (Compounds with a Cisplatin sensitization value of <0.02 μM are marked with “+++.”)
14 | COC1CCN(C2CCN(c3ccncc3NC(=O)c3c(N)nn4cc(Cl)cnc34)CC2)C1 (stereo not shown) [I-N-95, 2-amino-6-chloro-N-(4-(4-(3-methoxypyrrolidin-1-yl)piperidin-1-yl)pyridin-3-yl)pyrazolo[1,5-a]pyrimidine-3-carboxamide] | ++ (Compounds with a Cisplatin sensitization value >0.02 μM but <0.2 μM are marked with “++.”)
15 | CN1CCN(C(=O)C2CCN(c3ccncc3NC(=O)c3c(N)nn4cc(F)cnc34)CC2)CC1 [I-G-1, 2-amino-6-fluoro-N-(4-(4-(4-methylpiperazine-1-carbonyl)piperidin-1-yl)pyridin-3-yl)pyrazolo[1,5-a]pyrimidine-3-carboxamide] | +++ (Compounds with a Cisplatin sensitization value of <0.02 μM are marked with “+++.”)
16 | N#CCc1cnc2c(C(=O)Nc3cnccc3OC3CNC3)c(N)nn2c1 [I-O-82, 2-amino-N-(4-(azetidin-3-yloxy)pyridin-3-yl)-6-(cyanomethyl)pyrazolo[1,5-a]pyrimidine-3-carboxamide] | ++ (Compounds with a Cisplatin sensitization value >0.02 μM but <0.2 μM are marked with “++.”)
17 | Nc1nn2cc(F)cnc2c1C(=O)Nc1cncc(F)c1N1CCC(C(=O)N2CCN(C3COC3)CC2)CC1 [I-G-32, 2-amino-6-fluoro-N-[5-fluoro-4-[4-[4-(oxetan-3-yl)piperazine-1-carbonyl]-1-piperidyl]-3-pyridyl]pyrazolo[1,5-a]pyrimidine-3-carboxamide] | +++ (Compounds with a Cisplatin sensitization value of <0.02 μM are marked with “+++.”)
18 | COCCn1cncc1-c1ccncc1NC(=O)c1c(N)nn2cc(F)cnc12 [I-C-83, 2-amino-6-fluoro-N-(4-(1-(2-methoxyethyl)-1H-imidazol-5-yl)pyridin-3-yl)pyrazolo[1,5-a]pyrimidine-3-carboxamide] | ++ (Compounds with a Cisplatin sensitization value >0.02 μM but <0.2 μM are marked with “++.”)
19 | Nc1nn2cc(F)cnc2c1C(=O)Nc1cncc(F)c1N1CCN(C(=O)C23CCN(CC2)CC3)CC1 [I-N-134, 2-amino-6-fluoro-N-(5-fluoro-4-(4-(quinuclidine-4-carbonyl)piperazin-1-yl)pyridin-3-yl)pyrazolo[1,5-a]pyrimidine-3-carboxamide] | + (Compounds with a Cisplatin sensitization value >0.2 μM but <5 μM are marked with “+.”)
